Data as given in paper PMC11435058, “Synthesis of New Thiazole-Privileged Chalcones as Tubulin Polymerization Inhibitors with Potential Anticancer Activities” (Pharmaceuticals, 2024).

Key:
Conditions in all cases: Homo sapiens
[1] = system: RPMI-8226; experiment: NCI-60 anticancer screen (SRB; single dose and five doses)
[2] = system: OVCAR-3; experiment: cells
[3] = system: HOP-62; experiment: NCI-60 anticancer screen (SRB; single dose and five doses)
[4] = system: SF-539; experiment: as above
[5] = system: CAKI-1; experiment: as above
[6] = system: BT-549; experiment: as above
[7] = system: SW-620; experiment: as above
[8] = system: SNB-19; experiment: cells
[9] = system: M14; experiment: NCI-60 anticancer screen (SRB; single dose and five doses)
[10] = system: MDA-MB-435; experiment: as above
[11] = system: SF-268; experiment: as above
[12] = system: A549/ATCC; experiment: as above
[13] = system: RXF 393; experiment: as above
[14] = system: 786-0; experiment: as above
[15] = system: HS 578T; experiment: as above

With Cc1[nH]c(=S)sc1C(=O)/C=C/c1ccc([N+](=O)[O-])cc1 [2i, (E)-1-(4-Methyl-2-Thioxo-2,3-Dihydrothiazol-5-yl)-3-(4-Nitrophenyl)Prop-2-En-1-One] as the compound, how does the GI50 ([1]; RPMI-8226) read?
Its GI50 is 3.55 µM.

And the activity at 10 µM ([1]; RPMI-8226, 48 h, read-out: Growth Percentage)?
The activity at 10 µM was -7.9%.

And the CC50 ([1]; RPMI-8226, read-out: LC50)?
Its CC50 is greater than 100 µM.

What about the IC (TGI) ([1]; RPMI-8226, read-out: TGI) of the same compound?
The IC (TGI) was greater than 100 µM.

What about the GI50 ([2]; OVCAR-3) of the same compound?
The GI50 was 2.22 µM.

And the activity at 10 µM ([2]; OVCAR-3, 48 h, read-out: Growth Percentage)?
Its activity at 10 µM is -6%.

And the CC50 ([2]; OVCAR-3, read-out: LC50)?
The CC50 was 16.6 µM.

What about the IC (TGI) ([2]; OVCAR-3, read-out: TGI) of the same compound?
The IC (TGI) was 5.28 µM.

And the GI50 ([3]; HOP-62)?
The GI50 was 6.43 µM.

What about the activity at 10 µM ([3]; HOP-62, 48 h, read-out: Growth Percentage) of the same compound?
Its activity at 10 µM is 21.6%.

What about the CC50 ([3]; HOP-62, read-out: LC50) of the same compound?
The CC50 was 67.7 µM.

And the IC (TGI) ([3]; HOP-62, read-out: TGI)?
Its IC (TGI) is 23.2 µM.

And the GI50 ([4]; SF-539)?
The GI50 was 2.31 µM.

And the activity at 10 µM ([4]; SF-539, 48 h, read-out: Growth Percentage)?
The activity at 10 µM was -25.2%.

What about the IC (TGI) ([4]; SF-539, read-out: TGI) of the same compound?
Its IC (TGI) is 7.02 µM.

And the GI50 ([5]; CAKI-1)?
The GI50 was 13.9 µM.

What about the activity at 10 µM ([5]; CAKI-1, 48 h, read-out: Growth Percentage) of the same compound?
The activity at 10 µM was 31.1%.

And the CC50 ([5]; CAKI-1, read-out: LC50)?
The CC50 was 52.7 µM.

And the IC (TGI) ([5]; CAKI-1, read-out: TGI)?
The IC (TGI) was 27.1 µM.

And the GI50 ([6]; BT-549)?
Its GI50 is 5.04 µM.

And the activity at 10 µM ([6]; BT-549, 48 h, read-out: Growth Percentage)?
Its activity at 10 µM is 20.1%.

What about the IC (TGI) ([6]; BT-549, read-out: TGI) of the same compound?
Its IC (TGI) is 19.3 µM.

And the GI50 ([7]; SW-620)?
The GI50 was 3.59 µM.

And the activity at 10 µM ([7]; SW-620, 48 h, read-out: Growth Percentage)?
Its activity at 10 µM is -44.8%.

And the CC50 ([7]; SW-620, read-out: LC50)?
The CC50 was 44.2 µM.

And the IC (TGI) ([7]; SW-620, read-out: TGI)?
The IC (TGI) was 13.9 µM.

What about the GI50 ([8]; SNB-19) of the same compound?
The GI50 was 5.42 µM.

What about the activity at 10 µM ([8]; SNB-19, 48 h, read-out: Growth Percentage) of the same compound?
The activity at 10 µM was 41.2%.

And the CC50 ([8]; SNB-19, read-out: LC50)?
Its CC50 is 43.2 µM.

What about the IC (TGI) ([8]; SNB-19, read-out: TGI) of the same compound?
Its IC (TGI) is 18.3 µM.

What about the GI50 ([9]; M14) of the same compound?
The GI50 was 12.2 µM.

And the activity at 10 µM ([9]; M14, 48 h, read-out: Growth Percentage)?
The activity at 10 µM was 69.5%.

What about the IC (TGI) ([9]; M14, read-out: TGI) of the same compound?
Its IC (TGI) is 28.4 µM.

What about the GI50 ([10]; MDA-MB-435) of the same compound?
Its GI50 is 7.39 µM.

And the activity at 10 µM ([10]; MDA-MB-435, 48 h, read-out: Growth Percentage)?
The activity at 10 µM was 3.76%.

And the CC50 ([10]; MDA-MB-435, read-out: LC50)?
Its CC50 is 50.9 µM.

What about the IC (TGI) ([10]; MDA-MB-435, read-out: TGI) of the same compound?
The IC (TGI) was 21.1 µM.

What about the GI50 ([11]; SF-268) of the same compound?
Its GI50 is 15.6 µM.

And the activity at 10 µM ([11]; SF-268, 48 h, read-out: Growth Percentage)?
Its activity at 10 µM is 47.4%.

What about the CC50 ([11]; SF-268, read-out: LC50) of the same compound?
Its CC50 is 67.3 µM.

What about the IC (TGI) ([11]; SF-268, read-out: TGI) of the same compound?
The IC (TGI) was 32.4 µM.

And the GI50 ([12]; A549)?
Its GI50 is 17 µM.

And the activity at 10 µM ([12]; A549, 48 h, read-out: Growth Percentage)?
Its activity at 10 µM is 75.7%.

What about the CC50 ([12]; A549, read-out: LC50) of the same compound?
The CC50 was 69 µM.

And the IC (TGI) ([12]; A549, read-out: TGI)?
The IC (TGI) was 34.2 µM.

What about the GI50 ([13]; RXF 393) of the same compound?
Its GI50 is 4.88 µM.

And the activity at 10 µM ([13]; RXF 393, 48 h, read-out: Growth Percentage)?
The activity at 10 µM was -4.35%.

And the CC50 ([13]; RXF 393, read-out: LC50)?
Its CC50 is 44.8 µM.

And the IC (TGI) ([13]; RXF 393, read-out: TGI)?
Its IC (TGI) is 18.6 µM.

And the GI50 ([14]; 786-0)?
Its GI50 is 3.99 µM.

And the activity at 10 µM ([14]; 786-0, 48 h, read-out: Growth Percentage)?
The activity at 10 µM was 25.6%.

What about the CC50 ([14]; 786-0, read-out: LC50) of the same compound?
Its CC50 is 54 µM.

And the IC (TGI) ([14]; 786-0, read-out: TGI)?
Its IC (TGI) is 17.6 µM.

And the GI50 [15]?
The GI50 was 13 µM.
